Key:
[1] = tested on: PC-3M-luc prostate cancer cells; assay: Cell viability assay (MTS) PC-3M-luc; type: cell-based; conditions: 72 h
Summary of the method: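 HGC27 and PC-3M-luc cells (2000/well) were read by MTS after compound in 0.5% DMSO. W1 (10^4/well) and MCF-7 (2 × 10^3/well) were given half-log dilutions for 72 h, then MTT for 1 h, with absorbance at 570 nm minus 690 nm. Viability was fitted to a four-parameter logistic curve.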

HDAC6 = target: T1, HDAC6 (Homo sapiens, UniProt Q9UBN7); assay: HDAC6 in vitro deacetylation assay (ZMAL); type: biochemical; set-up: purchased BPS Bioscience 50006
T1 sequence (Q9UBN7 1-1215): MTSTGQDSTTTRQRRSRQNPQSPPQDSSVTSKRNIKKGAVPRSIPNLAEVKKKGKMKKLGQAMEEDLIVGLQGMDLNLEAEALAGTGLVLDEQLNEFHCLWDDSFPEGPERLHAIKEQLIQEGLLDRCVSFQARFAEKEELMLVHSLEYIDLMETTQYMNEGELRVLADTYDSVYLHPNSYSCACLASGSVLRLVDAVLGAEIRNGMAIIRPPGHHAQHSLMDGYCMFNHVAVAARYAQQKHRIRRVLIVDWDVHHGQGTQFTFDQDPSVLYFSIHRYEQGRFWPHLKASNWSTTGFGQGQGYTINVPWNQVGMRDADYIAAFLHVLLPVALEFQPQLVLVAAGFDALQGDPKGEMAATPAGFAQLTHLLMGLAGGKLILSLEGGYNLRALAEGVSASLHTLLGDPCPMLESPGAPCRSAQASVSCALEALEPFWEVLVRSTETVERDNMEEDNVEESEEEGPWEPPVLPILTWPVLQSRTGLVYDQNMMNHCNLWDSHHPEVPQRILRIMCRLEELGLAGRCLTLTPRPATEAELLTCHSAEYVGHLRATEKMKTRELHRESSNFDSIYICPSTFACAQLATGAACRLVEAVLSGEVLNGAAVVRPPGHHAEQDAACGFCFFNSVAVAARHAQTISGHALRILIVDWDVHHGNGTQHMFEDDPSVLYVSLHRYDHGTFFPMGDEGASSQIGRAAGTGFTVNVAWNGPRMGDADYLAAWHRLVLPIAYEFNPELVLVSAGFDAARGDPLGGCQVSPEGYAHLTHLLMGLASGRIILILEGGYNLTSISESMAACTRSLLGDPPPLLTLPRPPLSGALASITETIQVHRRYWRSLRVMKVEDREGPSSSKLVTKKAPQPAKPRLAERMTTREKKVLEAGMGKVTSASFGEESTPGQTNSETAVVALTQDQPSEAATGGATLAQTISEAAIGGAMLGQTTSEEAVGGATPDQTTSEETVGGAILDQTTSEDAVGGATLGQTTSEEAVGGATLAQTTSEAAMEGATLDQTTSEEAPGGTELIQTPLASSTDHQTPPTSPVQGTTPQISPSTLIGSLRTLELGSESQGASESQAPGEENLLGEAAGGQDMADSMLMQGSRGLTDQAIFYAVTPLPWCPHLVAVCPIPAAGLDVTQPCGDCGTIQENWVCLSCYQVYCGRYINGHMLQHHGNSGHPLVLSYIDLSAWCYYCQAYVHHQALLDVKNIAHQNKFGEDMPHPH

Sirt2 = target: T2, Sirt2 (Homo sapiens, UniProt Q8IXJ6); assay: Sirt2 in vitro deacetylation assay (ZMAL, trypsin-based fluorescence); type: biochemical; conditions: deacetylation, mean ± SD
T2 construct: the respective sirtuin (Sirt1_134–747, Sirt2_56–356, or Sirt3_118–395) was mixed with; made in house; host or cells: Escherichia coli BL21 Star (DE3)
T2 sequence (Q8IXJ6 56-356): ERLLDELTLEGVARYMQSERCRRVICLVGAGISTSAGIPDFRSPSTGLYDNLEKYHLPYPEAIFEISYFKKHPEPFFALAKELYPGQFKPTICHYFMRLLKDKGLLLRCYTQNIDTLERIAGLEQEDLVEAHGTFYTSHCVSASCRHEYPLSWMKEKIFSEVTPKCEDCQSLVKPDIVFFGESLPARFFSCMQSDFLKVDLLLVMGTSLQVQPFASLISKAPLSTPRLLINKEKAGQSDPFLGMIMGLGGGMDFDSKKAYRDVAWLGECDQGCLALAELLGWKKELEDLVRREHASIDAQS

Sirt1 = target: T3, Sirt1 (Homo sapiens, UniProt Q96EB6); assay: Sirt1 in vitro deacetylation assay (ZMAL); type: biochemical
T3 construct: the respective sirtuin (Sirt1_134–747, Sirt2_56–356, or Sirt3_118–395) was mixed with; made in house; host or cells: Escherichia coli BL21 Star (DE3)
T3 sequence (Q96EB6 134-747): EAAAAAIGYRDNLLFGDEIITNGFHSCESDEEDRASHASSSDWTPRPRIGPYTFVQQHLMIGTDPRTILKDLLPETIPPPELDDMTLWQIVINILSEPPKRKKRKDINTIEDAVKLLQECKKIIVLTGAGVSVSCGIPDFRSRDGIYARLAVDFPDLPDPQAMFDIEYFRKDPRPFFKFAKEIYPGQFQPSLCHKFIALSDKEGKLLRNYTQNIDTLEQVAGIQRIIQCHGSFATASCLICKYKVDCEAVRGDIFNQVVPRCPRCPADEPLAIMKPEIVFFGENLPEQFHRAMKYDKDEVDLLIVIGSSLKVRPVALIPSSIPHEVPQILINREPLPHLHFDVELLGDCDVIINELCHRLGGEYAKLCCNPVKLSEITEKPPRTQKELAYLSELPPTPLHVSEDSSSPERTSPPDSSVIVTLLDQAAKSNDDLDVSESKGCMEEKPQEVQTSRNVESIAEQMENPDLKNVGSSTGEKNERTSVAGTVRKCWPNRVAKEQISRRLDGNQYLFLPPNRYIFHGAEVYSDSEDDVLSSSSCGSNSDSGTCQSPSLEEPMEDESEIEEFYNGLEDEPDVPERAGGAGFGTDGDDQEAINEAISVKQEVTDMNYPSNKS

Sirt2 (demyristoylation) = target: T4, Sirt2 (demyristoylation) (Homo sapiens, UniProt Q8IXJ6); assay: Discontinuous Sirt2 demyristoylation assay (ZMML substrate); type: biochemical; conditions: mean ± SD
T4 construct: the respective sirtuin (Sirt1_134–747, Sirt2_56–356, or Sirt3_118–395) was mixed with; made in house; host or cells: Escherichia coli BL21 Star (DE3)
T4 sequence (Q8IXJ6 56-356): T2 sequence (Q8IXJ6 56-356)

| SMILES | EC50 ([1]; PC-3M-luc, read-out: PC-3M-luc cell viability EC50, MTS, mean ± SD) | IC50 (HDAC6; deacetylation, mean ± SD) | IC50 (Sirt2) | inhibition at 20 µM (Sirt1) | IC50 (Sirt2 (demyristoylation)) | PC-3M-luc cellular effect ([1]; @ 50 μM) | inhibition at 10 µM (HDAC6; @ 10 μM, read-out: HDAC6 percentual inhibition) |
| --- | --- | --- | --- | --- | --- | --- | --- |
| CCCCN(Cc1ccc(C(=O)NO)cc1)C(=O)CCCCn1cc(COc2cccc(Cc3cnc(NC(=O)CSc4nc(C)cc(C)n4)s3)c2)nn1 [Compound 33, 4-((N-Butyl-5-(4-((3-((2-(2-((4,6-dimethylpyrimidin-2-yl)thio)acetamido)thiazol-5-yl)methyl)phenoxy)methyl)-1H-1,2,3-triazol-1-yl)pentanamido)methyl)-N-hydroxybenzamide] | 30.1 ± 3.8 µM | 0.043 ± 0.003 µM | 0.32 ± 0.11 µM | < 15% | 9.7 ± 1.3 µM | – | – |
| Cc1cc(C)nc(SCC(=O)Nc2ncc(Cc3cccc(OCc4cn(Cc5ccccc5)nn4)c3)s2)n1 [Compound 4, SirReal1.1, reference compound] | – | – | 0.22 ± 0.01 µM | < 15% | 1.4 ± 0.3 µM | ni ^b (ni = no inhibition (cellular effect <20% @ 50 μM)) | 18% |
